# Test results reported in patent publication US20100240764A1, “Use of S-Clenbuterol” (EUCRO EUROPEAN CONTRACT RESEARCH GMBH & CO. KG, priority 2005, published 2010).
# How the values were obtained:
# [1] = literature, Eur J Pharmacol 446 (2002) 25-36; cited from earlier work
# [2] = literature, Eur J Pharmacol 117 (1985) 127-129; cited from earlier work
# [3] = tested on: hippocampal neurons; assay: Staurosporine (STS)-induced apoptosis in cultured hippocampal neurons, Hoechst 33258 nuclear staining; format: cell-based, rat; settings: 10 μM enantiomer added before STS 200 nM; apoptotic nuclei quantified 18 h after exposure; vs STS-treated controls (FIG. 1)
# Description: (§1) Neuronal cultures. Mixed primary cultures of hippocampal neurons and glial cells were prepared from neonatal Fischer 344 rats as described in Brain Research 1717 (1996) 44-54. Experiments were carried out after 10 days in culture. The NMDA antagonist memantine (Merz, Germany) and clenbuterol were applied 1 h or 5 h before exposure of the cells to glutamate (500 μmol/L, 1 h), respectively. For induction of excitotoxic cell death, medium (conditioned medium) was collected and glutamate-containing medium was added, and then exchanged again after 1 h by the conditioned ? enantiomeres were present in the culture medium also during and after exposure to glutamate. For induction of apoptosis, neurons were exposed to staurosporine (STS, 200 nmol/L, Sigma) […]. Cell death was determined by the trypan blue exclusion method or after staining the nuclei with the DNA-binding fluorochrom Hoechst 33258 as in Brain Research 1717 (1996) 44-54 and in STROKE 2004, 35: 1197-1202.
# The protective effects of the clenbuterol enantiomers in cultured neurons exposed to STS (200 nM) which induced apoptosis or glutamate (500 μM) which induced ecitotoxic cell death with morphological features of necrosis. The Clenbuterol enantiomeres were added to the culture medium at a concentration of 10 μM h before the onset of apoptotic or excitotoxic stress. […]
# [4] = tested on: hippocampal neurons; assay: Glutamate-induced excitotoxic cell death in cultured hippocampal neurons, trypan blue exclusion; format: cell-based, rat; settings: 10 μM, glutamate 500 μM for 1 h; for protection of neurons against glutamate excitotoxic insult: trypan blue-stained cultures 18 h after exposure (FIG. 2)
# Description: as §1
# The protective effects of the clenbuterol enantiomers in cultured neurons exposed to STS (200 nM) which induced apoptosis or glutamate (500 μM) which induced ecitotoxic cell death with morphological features of necrosis. The Clenbuterol enantiomeres were added to the culture medium at a concentration of 10 μM h before the onset of apoptotic or excitotoxic stress. […] Further, it was investigated whether such differences in the protective effect of the clenbuterol enantiomers could also be observed in a paradigm of necrotic cell death induced by glutamate.
# [5] = tested on: rat uterus; settings: Clenbuterol isomers; literature; cited from earlier work
SMILES,effects in preclinical models of neuroprotection [1],activity in psychopharmacological tests (CNS-effect) [2],STS-induced neuronal cell death (apoptotic nuclei) [3],number of trypan blue positive neurons ([4]; 18 h after exposure),protection of neurons against glutamate excitotoxic insult [4],relaxant response in rat uterus [5]
"CC(C)(C)NCC(O)c1cc(Cl)c(N)c(Cl)c1 (racemic) [racemic Clenbuterol, Clenbuterol]",positive effects,–,–,–,–,–
CC(C)(C)NC[C@@H](O)c1cc(Cl)c(N)c(Cl)c1 [S-Clenbuterol],–,did not show any CNS-effect,significantly attenuated STS-induced neuronal cell death,reduced the number of trypan blue positive neurons to control levels,significantly protected the neurons against the excitotoxic insult,not involved in the effects
CC(C)(C)NC[C@H](O)c1cc(Cl)c(N)c(Cl)c1 [R-clenbuterol],–,based only on the (−)-enantiomer,did not affect STS-induced apoptosis,–,did not show any protective effect,shows the effect
